The values below come from US11774455B2, “Peptide aptamer for specific recognition of arginine and its application” (INSTITUTE OF SUBTROPICAL AGRICULTURE, CHINESE ACADEMY OF …, priority 2019, dated 2023).

Assay [1] can be described thus: Binding verification by isothermal titration calorimeter with L-arginine. The settings on record: ITC; 10 μM peptide aptamer titrated into 1 μM L-arginine, 10 mM PBS, pH 7.4, 37° C.; read-out: binding parameter Kd value. As for the experimental part:
In the present invention, a primary sequence of an L-arginine sensing protein which can be recognized with L-arginine is obtained by searching for the L-arginine sensing proteins and transporters from a protein library, followed by cutting the primary sequence of the L-arginine sensing protein into 8 amino acid residues to obtain a peptide library and removing repeated peptide sequences from the peptide library. Next, a molecular simulation is performed on the peptides in the deduplicated peptide library and L-arginine to obtain a peptide aptamer library that can specifically bind to the arginine, and preferably, the peptide aptamer library is selected for experimental verification. Then, a binding verification is carried out on the peptide aptamer library and the arginine by an isothermal titration calorimeter. A verification method is as follows: 1 μM of the L-arginine is titrated with 10 μM of the peptide aptamer, a solvent and a binding buffer is 10 mM PBS buffer, pH is 7.4, and a binding temperature is 37° C., and the peptide aptamer that can specifically bind to the L-arginine can be determined.
Molecular simulation and binding verification of a peptide aptamer with L-arginine • A) Molecular simulation of the peptide aptamer and the L-arginine: AutoDock is used to place the L-arginine on the active site of the peptide aptamer, and its binding mode is predicted. […]
A general note: ITC needs no label: the signal is the heat of the interaction.

Assay [2] is described as follows: Isothermal titration calorimeter binding to other amino acids. The settings on record: amino acids having a similar structure to L-arginine.

In the case of FGHIHEGY [peptide aptamer], in assay [1], the equilibrium dissociation constant (Kd) stood at 13.3 µM. In assay [2], the “binding ability to other amino acids (ITC)” value is “no or very weak binding ability”.

As a reminder, the Kd is the equilibrium constant for the complex coming apart.
